# Results reported in patent publication US10519154B2, “7-substituted 1-pyridyl-naphthyridine-3-carboxylic acid amides and use thereof” (Bayer Pharma Aktiengesellschaft, priority 2016, dated 2019).
# Target: T1, human M2 receptor (Homo sapiens, UniProt P08172)
# T1 sequence (P08172 1-466): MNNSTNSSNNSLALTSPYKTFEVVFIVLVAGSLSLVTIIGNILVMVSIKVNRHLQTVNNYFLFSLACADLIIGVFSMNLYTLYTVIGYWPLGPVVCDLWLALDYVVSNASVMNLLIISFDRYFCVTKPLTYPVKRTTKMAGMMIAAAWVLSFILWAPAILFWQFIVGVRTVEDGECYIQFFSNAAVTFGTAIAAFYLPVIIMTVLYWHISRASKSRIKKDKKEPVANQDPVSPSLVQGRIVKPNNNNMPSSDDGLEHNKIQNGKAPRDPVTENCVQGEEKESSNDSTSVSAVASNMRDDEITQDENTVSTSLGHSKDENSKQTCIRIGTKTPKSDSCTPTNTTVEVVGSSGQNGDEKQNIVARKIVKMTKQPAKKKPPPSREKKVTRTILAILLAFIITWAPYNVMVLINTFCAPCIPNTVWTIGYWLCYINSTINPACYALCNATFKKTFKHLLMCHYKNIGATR
# Assay: Functional M2-GIRK1/4 activation test: allosteric potency (EC50) and efficiency
# Conditions: for EC50: Receptor activity EC50, CHO-DUKX-M2-GIRK cells, acetylcholine at EC20, in some cases mean of two or more determinations; for Emax: read-out: Efficiency, boosting of the acetylcholine effect at EC20 acetylcholine concentration; for Emax / Efficiency: CHO-DUKX-M2-GIRK cells; for Efficiency: boosting of the acetylcholine effect at EC20 acetylcholine concentration
Structure (SMILES),EC50,Emax,Efficiency
"O=C(NC(C1CC1)C(F)(F)F)c1cn(-c2ncc(F)cc2F)c2nc(N3C[C@@H](O)[C@@H](O)C3)ccc2c1=O (stereo partly drawn) [Example 35, N-[1-Cyclopropyl-2,2,2-trifluoroethyl]-1-(3,5-difluoropyridin-2-yl)-7-[(3R,4S)-3,4-dihydroxypyrrolidin-1-yl]-4-oxo-1,4-dihydro-1,8-naphthyridine-3-carboxamide]",170 nM,99.5%,–
"CC(C)(NC(=O)c1cn(-c2ncc(F)cc2F)c2nc(N3CC4(COC4)C3)ccc2c1=O)C(F)(F)C(F)(F)F [Example 182, 1-(3,5-Difluoropyridin-2-yl)-7-(2-oxa-6-azaspiro[3.3]hept-6-yl)-4-oxo-N-(3,3,4,4,4-pentafluoro-2-methylbutan-2-yl)-1,4-dihydro-1,8-naphthyridine-3-carboxamide]",410 nM,100%,–
"O=C(Nc1c(Cl)cccc1Cl)c1cn(-c2ncc(F)cc2F)c2nc(N3C[C@H](O)[C@@H](O)C3)ccc2c1=O [Example 68, N-(2,6-Dichlorophenyl)-1-(3,5-difluoropyridin-2-yl)-7-[(3S,4S)-3,4-dihydroxypyrrolidin-1-yl]-4-oxo-1,4-dihydro-1,8-naphthyridine-3-carboxamide]",195 nM,96%,–
"CC[C@@H](NC(=O)c1cn(-c2ncc(F)cc2Cl)c2nc(N3C[C@@H](O)CC3=O)ccc2c1=O)C(F)(F)F [Example 20, 1-(3-Chloro-5-fluoropyridin-2-yl)-7-[(4S)-4-hydroxy-2-oxopyrrolidin-1-yl]-4-oxo-N-[(2R)-1,1,1-trifluorobutan-2-yl]-1,4-dihydro-1,8-naphthyridine-3-carboxamide]",330 nM,87%,–
"CC[C@H](NC(=O)c1cn(-c2ncc(F)cc2F)c2nc(N3CC(F)C3)ccc2c1=O)C(F)(F)F [Example 132, 1-(3,5-Difluoropyridin-2-yl)-7-(3-fluoroazetidin-1-yl)-4-oxo-N-[(2S)-1,1,1-trifluorobutan-2-yl]-1,4-dihydro-1,8-naphthyridine-3-carboxamide]",325 nM,98%,–
"CC(C)(CC(F)(F)F)NC(=O)c1cn(-c2ncc(F)cc2F)c2nc(N3CCNC3=O)ccc2c1=O [Example 145, 1-(3,5-Difluoropyridin-2-yl)-4-oxo-7-(2-oxoimidazolidin-1-yl)-N-(4,4,4-trifluoro-2-methylbutan-2-yl)-1,4-dihydro-1,8-naphthyridine-3-carboxamide]",435 nM,98.5%,–
"O=C(NC(C1CC1)C(F)(F)F)c1cn(-c2ncc(F)cc2F)c2nc(N3C[C@@H](O)[C@H](O)C3)ccc2c1=O (stereo partly drawn) [Example 40, N-[1-Cyclopropyl-2,2,2-trifluoroethyl]-1-(3,5-difluoropyridin-2-yl)-7-[(3R,4R)-3,4-dihydroxypyrrolidin-1-y1]-4-oxo-1,4-dihydro-1,8-naphthyridine-3-carboxamide]",160 nM,100%,–
"CC[C@H](NC(=O)c1cn(-c2ncc(F)cc2F)c2nc(N3C(=O)C4(CC4)C(O)C3C)ccc2c1=O)C(F)(F)F (stereo partly drawn) [Example 113, 1-(3,5-Difluoropyridin-2-yl)-7-[7-hydroxy-6-methyl-4-oxo-5-azaspiro[2.4]hept-5-yl]-4-oxo-N-[(2S)-1,1,1-trifluorobutan-2-yl]-1,4-dihydro-1,8-naphthyridine-3-carboxamide]",145 nM,97%,–
"CC1(O)CCN(c2ccc3c(=O)c(C(=O)Nc4c(Cl)cccc4Cl)cn(-c4ncc(F)cc4F)c3n2)C1 (racemic) [Example 69, N-(2,6-Dichlorophenyl)-1-(3,5-difluoropyridin-2-yl)-7-[3-hydroxy-3-methylpyrrolidin-1-yl]-4-oxo-1,4-dihydro-1,8-naphthyridine-3-carboxamide]",365 nM,92%,–
"CC[C@@H](NC(=O)c1cn(-c2ncc(F)cc2F)c2nc(N3CCC(C)(O)C3)ccc2c1=O)C(F)(F)F (mixture of isomers) [Example 46, 1-(3,5-Difluoropyridin-2-yl)-7-[3-hydroxy-3-methylpyrrolidin-1-yl]-4-oxo-N-[(2R)-1,1,1-trifluorobutan-2-yl]-1,4-dihydro-1,8-naphthyridine-3-carboxamide]",385 nM,97%,–
"O=C(NC12CC(C1)C2)c1cn(-c2ncc(F)cc2F)c2nc(N3C[C@@H](O)CC3=O)ccc2c1=O [Example 101, N-(Bicyclo[1.1.1]pent-1-yl)-1-(3,5-difluoropyridin-2-yl)-7-[(4S)-4-hydroxy-2-oxopyrrolidin-1-yl]-4-oxo-1,4-dihydro-1,8-naphthyridine-3-carboxamide]",585 nM,78.5%,–
"O=C(NC1(C(F)(F)F)CCC1)c1cn(-c2ncc(F)cc2F)c2nc(N3C[C@@H](O)CC3=O)ccc2c1=O [Example 151, 1-(3,5-Difluoropyridin-2-yl)-7-[(4S)-4-hydroxy-2-oxopyrrolidin-1-yl]-4-oxo-N-[1-(trifluoromethyl)cyclobutyl]-1,4-dihydro-1,8-naphthyridine-3-carboxamide]",290 nM,99%,–
"CC[C@@H](NC(=O)c1cn(-c2ncc(F)cc2F)c2nc(N3C[C@@H](O)[C@H](O)C3)ccc2c1=O)C(F)(F)F [Example 42, 1-(3,5-Difluoropyridin-2-yl)-7-[(3R,4R)-3,4-dihydroxypyrrolidin-1-yl]-4-oxo-N-[(2R)-1,1,1-trifluorobutan-2-yl]-1,4-dihydro-1,8-naphthyridine-3-carboxamide]",295 nM,100%,–

# Now those with a lower EC50, led by results:
EC50,Emax,Efficiency,Structure (SMILES)
135 nM,96%,–,"CC[C@H](NC(=O)c1cn(-c2ncc(F)cc2F)c2nc(N3CC(O)C(C)C3=O)ccc2c1=O)C(F)(F)F (single isomer, unassigned) [Example 109]"
110 nM,100%,–,"O=C(NC(C(F)(F)F)C(F)(F)F)c1cn(-c2ncc(F)cc2F)c2nc(N3CCC(CO)(CO)CC3)ccc2c1=O [Example 186, 7-[4,4-Bis(hydroxymethyl)piperidin-1-yl]-1-(3,5-difluoropyridin-2-yl)-N-(1,1,1,3,3,3-hexafluoropropan-2-yl)-4-oxo-1,4-dihydro-1,8-naphthyridine-3-carboxamide]"
100 nM,–,99.00%,"CC[C@H](NC(=O)c1cn(-c2ncc(F)cc2F)c2nc(N3CC(O)C(C)C3=O)ccc2c1=O)C(F)(F)F (single isomer, unassigned) [Example 111]"
85 nM,–,99.00%,"O=C(NC(c1ccccc1Cl)C(F)(F)F)c1cn(-c2ncc(F)cc2F)c2nc(N3C[C@@H](O)[C@H](O)C3)ccc2c1=O (single isomer, unassigned) [Example 85]"
83 nM,100%,–,"O=C(NC(c1ccc(Cl)cc1)C(F)(F)F)c1cn(-c2ncc(F)cc2F)c2nc(N3C[C@@H](O)CC3=O)ccc2c1=O (stereo partly drawn) [Example 8, N-[1-(4-Chlorophenyl)-2,2,2-trifluoroethyl]-1-(3,5-difluoropyridin-2-yl)-7-[(4S)-4-hydroxy-2-oxopyrrolidin-1-yl]-4-oxo-1,4-dihydro-1,8-naphthyridine-3-carboxamide]"
70 nM,100%,–,"CC(NC(=O)c1cn(-c2ncc(F)cc2F)c2nc(N3CCNC3=O)ccc2c1=O)C(F)(F)C(F)(F)F (racemic) [Example 161, 1-(3,5-Difluoropyridin-2-yl)-4-oxo-7-(2-oxoimidazolidin-1-yl)-N-[3,3,4,4,4-pentafluorobutan-2-yl]-1,4-dihydro-1,8-naphthyridine-3-carboxamide]"
68 nM,100%,–,"CCC(NC(=O)c1cn(-c2ncc(F)cc2F)c2nc(N3C[C@@H](O)[C@H](O)C3)ccc2c1=O)C(F)(F)C(F)(F)F (single isomer, unassigned) [Example 96]"
66 nM,100%,–,"O=C(NC(c1ccccc1Cl)C(F)(F)F)c1cn(-c2ncc(F)cc2F)c2nc(N3CCNC3=O)ccc2c1=O (single isomer, unassigned) [Example 148, N-[1-(2-Chlorophenyl)-2,2,2-trifluoroethyl]-1-(3,5-difluoropyridin-2-yl)-4-oxo-7-(2-oxoimidazolidin-1-yl)-1,4-dihydro-1,8-naphthyridine-3-carboxamide]"
50 nM,96%,–,"CC(C)(C)[C@@H](NC(=O)c1cn(-c2ncc(F)cc2F)c2nc(N3CCCN(CCO)C3=O)ccc2c1=O)C(F)(F)F [Example 127, 1-(3,5-Difluoropyridin-2-yl)-7-[3-(2-hydroxyethyl)-2-oxotetrahydropyrimidin-1(2H)-yl]-4-oxo-N-[(2R)-1,1,1-trifluoro-3,3-dimethylbutan-2-yl]-1,4-dihydro-1,8-naphthyridine-3-carboxamide]"
30 nM,–,81.00%,"CCC(NC(=O)c1cn(-c2ncc(F)cc2F)c2nc(N3CCNC3=O)ccc2c1=O)C(F)(F)C(F)(F)F (single isomer, unassigned) [Example 166, 1-(3,5-Difluoropyridin-2-yl)-4-oxo-7-(2-oxoimidazolidin-1-yl)-N-[1,1,1,2,2-pentafluoropentan-3-yl]-1,4-dihydro-1,8-naphthyridine-3-carboxamide]"
28 nM,100%,–,"CC(C)C[C@H](NC(=O)c1cn(-c2ncc(F)cc2F)c2nc(N3C[C@@H](O)[C@H](O)C3)ccc2c1=O)C(F)(F)F [Example 82, 1-(3,5-Difluoropyridin-2-yl)-7-[(3R,4R)-3,4-dihydroxypyrrolidin-1-yl]-4-oxo-N-[(2S)-1,1,1-trifluoro-4-methylpentan-2-yl]-1,4-dihydro-1,8-naphthyridine-3-carboxamide]"
